Assay results reported in US20240317683A1, “METHODS OF TREATING MOOD DISORDERS” (priority 2020, published 2024).
pEC50, pIC50: −log10 of the molar value. Where a name gives a salt, the structure may show the parent alone.

Legend:
[1] = Pharmacokinetics in mice, plasma; type: in vivo, C57BL/6 mice; conditions: for AUC(0-t) / clearance / half-life / Cmax / Tmax: male, C57BL/6, mouse plasma; for F: mouse, based on plasma AUC0-last
Protocol: (§1) Animals. Male C57BL/6 mice, aged 8-12 weeks, were used in these studies. Four mice were housed in each cage. Temperature and humidity were maintained at 22±3° C. and 30-70%, respectively, and illumination was controlled to give a 12 h light and 12 h dark cycle. Temperature and humidity were recorded by an auto-controlled data logger system. All animals were provided laboratory rodent diet. Reverse osmosis water treated with ultraviolet light was provided ad libitum. Animals were randomly assigned to treatment groups.
(§2) Drugs. Compounds 4 and 5 were prepared as described above. All other compounds were commercially obtained. Test compounds were used as the hydrogen fumarate (1 and 2) or hydrochloride (3, 4, and 5) salts and were dissolved in a vehicle consisting of normal saline. They were then administered intravenously (IV) via the tail vein, subcutaneously (SC), or orally (PO) via gavage at a dose of 1 or 10 mg/kg (calculated based on the free base) and at a volume of 5 ml/kg body weight.
(§3) Sample Collection and Bioanalysis. Blood samples (approximately 60 μL) were collected under light isoflurane anesthesia (Surgivet®) from the retro orbital plexus at 0.08, 0.25, 0.5, 1, 2, 4, 8, and 24 h (4 animals per time point). Immediately after blood collection, plasma was harvested by centrifugation at 4,000 rpm for 10 min at 4° C. and samples were stored at −70±10° C. until bioanalysis. Following blood collection, animals were immediately sacrificed, the abdominal vena-cava was cut open, and the whole body was perfused from the heart using 10 mL of normal saline, and brain samples were collected from all animals. After isolation, brain samples were rinsed three times in ice-cold normal saline (for 5-10 seconds/rinse using ˜5-10 mL normal saline in disposable petri dish for each rinse) and dried on blotting paper. Brain samples were homogenized using ice-cold phosphate-buffered saline (pH 7.4). Total homogenate volume was three times the tissue weight. All homogenates were stored at −70±10° C. until bioanalysis. For bioanalysis, 25 μL aliquots of plasma/brain study samples or spiked plasma/brain calibration standards were added to individual pre-labeled micro-centrifuge tubes followed by 100 μL of an internal standard solution (glipizide, 500 ng/ml in acetonitrile) except for blanks, where 100 μL of acetonitrile was added. Samples were vortexed for 5 minutes and then centrifuged for 10 minutes at 4,000 rpm at 4° C. Following centrifugation, 100 μL of each clear supernatant was transferred to a 96 well plate and analyzed with a fit-for-purpose LC-MS/MS method, with authentic samples of each analyte used for calibration and identification.
(§4) Data Analysis. Pharmacokinetic parameters were estimated using the non-compartmental analysis tool of Phoenix® WinNonlin software (Ver 8.0).

[2] = Pharmacokinetics in mice, brain; type: in vivo, C57BL/6 mice; conditions: for half-life / Cmax / Tmax / AUC0-last: mouse brain; for F: mouse, based on brain AUC0-last
Protocol: as §1, §2, §3, §4

CYP2C19 = CYP2C19 (Homo sapiens (Human), UniProt P33261); test: CYP inhibition in human liver microsomes, CYP2C19; type: in vitro ADME
Protocol: HLM Incubations. Pooled HLM from adult male and female donors (Corning 452117) were used. Microsomal incubations were carried out in multi-well plates. Liver microsomal incubation aliquots contained 1) PBS (100 mM, pH 7.4), MgCl2 (3.3 mM), and NADPH (1 mM); 2) liver microsomal protein (0.2 mg/mL); 3) the reference CYP substrates: phenacetin for CYP1A2 (10 μM), diclofenac for CYP2C9 (5 μM), (S)-mephenytoin for CYP2C19 (30 μM), dextromethorphan for CYP2D6 (5 μM), and midazolam for CYP3A4 (2 μM); and 4) test compounds (10 μM), control inhibitors (3 μM α-naphthoflavone for CYP1A2, 3 μM sulfaphenazole for CYP2C9, 1 μM (+)-N-3-benzylnirvanol for 2C19, 3 μM quinidine for CYP2D6, or 3 μM ketoconazole for CYP3A4), or solvent (for uninhibited condition). Incubations were carried out at 37° C. with constant shaking for 10 minutes.
Sample Analysis. […] Percent inhibition by test compounds or control inhibitors was calculated by comparing the metabolite formation in the presence of the inhibitor compared to the metabolite formation in the absence of the inhibitor.

human 5-HT2C receptor = human 5-HT2C receptor (Homo sapiens (Human), UniProt P28335); test: cell-based; type: cell-based; conditions: Ca2+ flux
[3] = Stability in mouse brain homogenate; type: in vitro ADME, CD-1 mice; conditions: for half-life at 1 μM: male, CD-1; for half-life at 1 μM / % Compound Remaining (after 120 min): mouse brain homogenate, 37° C., 1 μM
Protocol: Mouse Brain Homogenate Stability. Frozen mouse brain homogenate (pooled from male CD-1 mice, BioreclamationIVT, MSE00BRAINMZA) was thawed in a water bath at 37° C. immediately prior to use. Positive controls and test compounds (final concentration in incubation medium=1 μM for test compounds and 2 μM for controls, all with 2% DMSO) were incubated in duplicate for each time point (0, 10, 30, 60, and 120 min) in the mouse brain homogenate at a total reaction volume of […] at 37° C. At the end of each incubation period, reactions were immediately quenched with 400 μL of acetonitrile containing internal standard (200 ng/mL tolbutamine and 200 ng/ml labetalol) and mixed thoroughly. Plates were then sealed, shaken for 20 min, and centrifuged at 4,000 rpm and 4° C. for 20 min. Aliquots of 50 μL of each supernatant were diluted into 100 μL of water and the mixtures were then shaken again for 10 min.

[4] = IV, 10 mg/kg, read-out: Cmax (C0 back-extrapolated to t = 0)
[5] = male, C57BL/6, IV, 10 mg/kg, read-out: Cmax (C0 back-extrapolated to t = 0)
[6] = male, C57BL/6, SC, 1 mg/kg, read-out: Cmax
[7] = male, C57BL/6, SC, 10 mg/kg, read-out: Cmax
[8] = male, C57BL/6, oral, 10 mg/kg, read-out: Cmax

human 5-HT2C receptor, sequence (P28335 33-458 limits assumed): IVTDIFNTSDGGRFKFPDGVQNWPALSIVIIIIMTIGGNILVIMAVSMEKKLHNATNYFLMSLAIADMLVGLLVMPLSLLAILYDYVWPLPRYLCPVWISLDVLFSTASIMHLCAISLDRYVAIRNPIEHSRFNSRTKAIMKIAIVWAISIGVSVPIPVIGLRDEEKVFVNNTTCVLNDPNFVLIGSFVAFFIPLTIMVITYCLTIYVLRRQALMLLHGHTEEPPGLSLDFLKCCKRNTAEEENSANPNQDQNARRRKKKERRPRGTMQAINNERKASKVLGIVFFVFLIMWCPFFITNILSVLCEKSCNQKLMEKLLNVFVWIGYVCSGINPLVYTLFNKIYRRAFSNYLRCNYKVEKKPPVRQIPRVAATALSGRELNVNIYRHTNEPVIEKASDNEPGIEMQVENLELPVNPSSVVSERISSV
CYP2C19, sequence (P33261 whole entry, looked up): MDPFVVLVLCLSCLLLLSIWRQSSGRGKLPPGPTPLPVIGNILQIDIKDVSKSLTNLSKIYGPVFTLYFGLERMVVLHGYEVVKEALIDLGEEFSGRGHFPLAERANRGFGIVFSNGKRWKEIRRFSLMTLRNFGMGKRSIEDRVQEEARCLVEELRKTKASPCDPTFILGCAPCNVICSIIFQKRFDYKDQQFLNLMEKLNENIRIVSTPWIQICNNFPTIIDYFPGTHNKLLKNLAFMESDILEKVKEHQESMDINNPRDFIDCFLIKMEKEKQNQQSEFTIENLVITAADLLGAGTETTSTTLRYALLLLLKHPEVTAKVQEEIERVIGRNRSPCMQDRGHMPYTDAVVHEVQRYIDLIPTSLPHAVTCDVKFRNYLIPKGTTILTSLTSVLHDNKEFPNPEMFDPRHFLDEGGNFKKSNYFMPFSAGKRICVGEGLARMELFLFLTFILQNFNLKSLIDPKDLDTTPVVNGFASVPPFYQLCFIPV

## CCN(C)CCc1c[nH]c2ccc(F)cc12 [Compound 4, N-ethyl-2-(5-fluoro-1H-indol-3-yl)-N-methylethan-1-amine hydrochloride]
[1]; IV, 10 mg/kg
  AUC(0-t): 1790 ng·h/mL
  clearance: 92.8 mL/min/kg
  half-life: 51.6 min
[1]; [4]
  Cmax: 2910 ng/mL
[1]; SC, 1 mg/kg
  AUC(0-t): 57.5 ng·h/mL
  Tmax: 4.8 min
  half-life: 27 min
  F: 32%
[1]; SC, 1 mg/kg, read-out: Cmax
  Cmax: 83.2 ng/mL
[1]; SC, 10 mg/kg
  AUC(0-t): 1170 ng·h/mL
  Tmax: 30 min
  half-life: 54 min
  F: 65%
[1]; SC, 10 mg/kg, read-out: Cmax
  Cmax: 631 ng/mL
[1]; oral, 10 mg/kg
  AUC(0-t): 623 ng·h/mL
  Tmax: 15 min
  half-life: 80.4 min
  F: 35%
[1]; oral, 10 mg/kg, read-out: Cmax
  Cmax: 272 ng/mL
[2]; male, C57BL/6, IV, 10 mg/kg
  half-life: 56.4 min
[2]; [5]
  Cmax: 7980 ng/g
[2]; male, C57BL/6, SC, 1 mg/kg
  Tmax: 15 min
  half-life: 22.2 min
[2]; [6]
  Cmax: 461 ng/g
[2]; male, C57BL/6, SC, 10 mg/kg
  Tmax: 60 min
  half-life: 49.2 min
[2]; [7]
  Cmax: 3510 ng/g
[2]; male, C57BL/6, oral, 10 mg/kg
  Tmax: 15 min
  half-life: 79.2 min
[2]; [8]
  Cmax: 1400 ng/g
[2]; IV, 10 mg/kg
  AUC0-last: 10,471.19 h*ng/g
[2]; SC, 1 mg/kg
  AUC0-last: 320.97 ng·h/g
  F: 31%
[2]; SC, 10 mg/kg
  AUC0-last: 6,672.16 h*ng/g
  F: 64%
[2]; oral, 10 mg/kg
  AUC0-last: 3,835.86 h*ng/g
  F: 37%
CYP2C19
  pIC50: < 4.30
Human 5-HT2C receptor
  5-HT2C % Act @ Max Dose: 85.13%
  pEC50: 8.02
[3]
  stability in mouse brain homogenate (in words): intermediate stability
  half-life at 1 μM: 54.3 min
  % Compound Remaining (after 120 min): 20.7%

## CCN(C)CCc1c[nH]c2ccccc12 [Compound 2, methylethyltryptamine]
[1]; IV, 10 mg/kg
  AUC(0-t): 545 ng·h/mL
  clearance: 304 mL/min/kg
  half-life: 88.8 min
[1]; [4]
  Cmax: 963 ng/mL
[1]; oral, 10 mg/kg
  AUC(0-t): 238 ng·h/mL
  Tmax: 15 min
  half-life: 82.2 min
  F: 44%
[1]; oral, 10 mg/kg, read-out: Cmax
  Cmax: 102 ng/mL
[2]; male, C57BL/6, IV, 10 mg/kg
  half-life: 92.4 min
[2]; [5]
  Cmax: 6250 ng/g
[2]; male, C57BL/6, oral, 10 mg/kg
  Tmax: 30 min
  half-life: 451 min
[2]; [8]
  Cmax: 957 ng/g
[2]; IV, 10 mg/kg
  AUC0-last: 3,923.27 h*ng/g
[2]; oral, 10 mg/kg
  AUC0-last: 1,988.41 h*ng/g
  F: 51%
CYP2C19
  pIC50: < 4.30
CYP2C19; both sexes, human, pooled human liver microsomes, pH 7.4, probe (S)-mephenytoin (30 μM), HLM, 10 μM, (S)-mephenytoin substrate, read-out: CYP 2C19 % Inhibition at 10 μM
  inhibition at 10 min, 10 µM: 0%
Human 5-HT2C receptor
  5-HT2C % Act @ Max Dose: 89.7%
[3]
  stability in mouse brain homogenate (in words): intermediate stability
  half-life at 1 μM: 123 min
  % Compound Remaining (after 120 min): 47.8%

## CN(C)CCc1c[nH]c2cccc(O)c12 [Psilocin, psilocin, reference compound]
[1]; IV, 1 mg/kg
  AUC(0-t): 79.9 ng·h/mL
  clearance: 204 mL/min/kg
  half-life: 66 min
[1]; IV, 1 mg/kg, read-out: Cmax (C0 back-extrapolated to t = 0)
  Cmax: 195 ng/mL
[1]; oral, 1 mg/kg
  AUC(0-t): 51.1 ng·h/mL
  Tmax: 10.2 min
  half-life: 118 min
  F: 64%
[1]; oral, 1 mg/kg, read-out: Cmax
  Cmax: 85.9 ng/mL
[2]; male, C57BL/6, mouse brain table, IV, 1 mg/kg
  clearance: 24.1 mL/min/kg
[2]; male, C57BL/6, IV, 1 mg/kg
  half-life: 182 min
[2]; male, C57BL/6, IV, 1 mg/kg, read-out: Cmax (C0 back-extrapolated to t = 0)
  Cmax: 1200 ng/g
[2]; male, C57BL/6, oral, 1 mg/kg
  Tmax: 10.2 min
  half-life: 175 min
[2]; male, C57BL/6, oral, 1 mg/kg, read-out: Cmax
  Cmax: 211 ng/g
[2]; IV, 1 mg/kg
  AUC0-last: 702 ng·h/g
[2]; oral, 1 mg/kg
  AUC0-last: 399 ng·h/g
  F: 57%
[3]
  stability in mouse brain homogenate (in words): high stability
  half-life at 1 μM: > 289 min
  % Compound Remaining (after 120 min): 97.6%

## CN(C)CCc1c[nH]c2ccc(F)cc12 [Compound 5, 2-(5-fluoro-1H-indol-3-yl)-N,N-dimethylethan-1-amine hydrochloride]
[1]; SC, 1 mg/kg
  AUC(0-t): 11 ng·h/mL
  Tmax: 4.8 min
[1]; SC, 1 mg/kg, read-out: Cmax
  Cmax: 41.6 ng/mL
[1]; SC, 10 mg/kg
  AUC(0-t): 247 ng·h/mL
  Tmax: 15 min
  half-life: 16.2 min
[1]; SC, 10 mg/kg, read-out: Cmax
  Cmax: 363 ng/mL
[2]; male, C57BL/6, SC, 1 mg/kg
  Tmax: 4.8 min
[2]; [6]
  Cmax: 22 ng/g
[2]; male, C57BL/6, SC, 10 mg/kg
  Tmax: 15 min
[2]; [7]
  Cmax: 778 ng/g
[2]; SC, 10 mg/kg
  AUC0-last: 376.09 ng·h/g
[3]
  stability in mouse brain homogenate (in words): highly unstable
  half-life at 1 μM: 3.1 min
  % Compound Remaining (after 120 min): 0.0%

## CN(C)CCc1c[nH]c2ccccc12 [DMT, N,N-dimethyltryptamine, reference compound]
[3]
  stability in mouse brain homogenate (in words): highly unstable
  half-life at 1 μM: 6.4 min
  % Compound Remaining (after 120 min): 0.0%

## CCN(C)CCc1c[nH]c2cccc(O)c12 [Compound 6]
[1]; SC, 10 mg/kg
  AUC(0-t): 1410 ng·h/mL
  Tmax: 4.8 min
  half-life: 66 min
[1]; SC, 10 mg/kg, read-out: Cmax
  Cmax: 1160 ng/mL
[2]; male, C57BL/6, SC, 10 mg/kg
  Tmax: 30 min
  half-life: 64.2 min
[2]; [7]
  Cmax: 2920 ng/g
[2]; SC, 10 mg/kg
  AUC0-last: 3,549.18 h*ng/g
CYP2C19
  pIC50: < 4.30
[3]
  stability in mouse brain homogenate (in words): intermediate stability
  half-life at 1 μM: 45.8 min
  % Compound Remaining (after 120 min): 16.7%

## CCCN(CC)CCc1c[nH]c2ccc(F)cc12 [Compound 3, N-ethyl-N-(2-(5-fluoro-1H-indol-3-yl)ethyl) propan-1-amine hydrochloride]
CYP2C19
  pIC50: < 4.30
[3]
  stability in mouse brain homogenate (in words): high stability
  half-life at 1 μM: > 289 min
  % Compound Remaining (after 120 min): 76.7%
